Data as given in patent US4341779A, “Esters of amidinepenicillins” (priority 1978, dated 1982).
Where a name gives a salt, the structure may show the parent alone. Read-outs that look alike come from different tables or passages of the source.

Columns and labels:
arterial pressure = assay: effect onto the arterial pressure of experimental animals; type: in vivo; details: on the contrary to Pivmecillinam
[1] = rat, in vivo
mice = assay: LD50 after administration per os in mice
[2] = LD50 after administration per os in mice; details: mouse, in vivo, po, LD50, mice, per os
[3] = comparative levels of 6-/N,N-1',6'-hexyleneformamidine/-penicillanic acid in blood serum, livers, lungs and kidneys of rats after per os administration (Table 2); type: in vivo
Excerpt: The results of the measurements, expressed in μg/ml are specified in Table 2.

in vivo = details: mouse, po
[4] = levels of free acid in serum and organs of rats after per os administration of the aminopropyl dihydrochloride; type: in vivo

Row | SMILES | effect onto the arterial pressure (arterial pressure) | level of free acid in blood serum ([1]; 5 min) [ng/mL] | level of free acid in blood serum ([1]; 10 min) [ng/mL] | level of free acid in blood serum ([1]; 15 min) [ng/mL] | level of free acid in blood serum ([1]; 30 min) [ng/mL] | level of free acid in blood serum ([1]; 45 min) [ng/mL] | level of free acid in blood serum ([1]; 60 min) [ng/mL] | level of free acid in blood serum ([1]; 120 min) [ng/mL] | level of free acid in blood serum ([1]; 180 min) [ng/mL] | level of free acid in blood serum ([1]; 240 min) [ng/mL] | level of free acid in blood serum ([1]; 300 min) [ng/mL] | level of free acid in blood serum ([1]; 360 min) [ng/mL] | further results
1 | CC(=O)COC(=O)[C@@H]1N2C(=O)[C@@H](N=CN3CCCCCC3)[C@H]2SC1(C)C [Hydrochloride of methylacetic ester of 6-/N,N1', 6'-hexylene] [hydrochloride of methylacetic ester of 6-/N, N-1', 6'-hexyleneformamidine/-penicillanic acid] | no effect | 12900 | 14300 | 16400 | 16100 | 18900 | 14400 | 9100 | 2100 | 1000 | 800 | 100 | LD50 (mice; mice, per os, listed as hydrochloride of said ester): over 5 g/kg of the body weight
2 | CC(=O)COC(=O)[C@@H]1N2C(=O)[C@@H](N=CN3CCCCCC3)[C@H]2SC1(C)C [methylacetic ester of 6-/N,N-1', 6'-hexyleneformamidine/-penicillanic acid] |  |  |  |  |  |  |  |  |  |  |  |  | LD50 [2]: > 3000 mg/kg
3 | CC(=O)COC(=O)[C@@H]1N2C(=O)[C@@H](N=CN3CCCCCC3)[C@H]2SC1(C)C [Methylacetic ester of 6-N,N-1', 6'-hexyleneformamidine/-peni] [methylacetic ester of 6-/N,N-1', 6'-hexyleneformamidine/-penicillanic acid] | no effect | 29300 | 35000 | 42700 | 21100 | 21200 | 16900 | 4900 | 1600 | 800 | 600 | 300 | maximum level in kidneys relative to equivalent dose of Pivmecillinam ([3]; kidneys): three times; maximum level in the liver relative to equivalent dose of Pivmecillinam ([3]; liver): over two times higher; maximum levels in the lungs, ester and Pivmecillinam compared ([3]; lungs, equivalent doses): approximate ones; levels of free acid in the serum, comparison of preparations [1]: highest levels; maximum serum level relative to equivalent dose of Pivmecillinam [1]: over two times higher; maximum serum level relative to equivalent dose of corresponding free acid [1]: over twenty times higher; toxicity compared with Pivascillinam (mice; compared with Pivascillinam): toxicity lower than that of Pivascillinam
4 | CC(C)(C)C(=O)OCOC(=O)[C@@H]1N2C(=O)[C@@H](/N=C/N3CCCCCC3)[C@H]2SC1(C)C [Pivmecillinam, hydrochloride of pivaloyl-oxymethyl ester of 6-/N,N-1',6'-hecylaneformamidine/-penicillanicacid, reference compound] |  | 6300 | 12700 | 15500 | 19200 | 16300 | 14700 | 7900 | 2100 | 1800 | 1500 | 1100 | LD50 (in vivo): 2600 mg/kg
5 | CC(=O)COC(=O)[C@@H]1N2C(=O)[C@@H](N=CN3CCC(CCCN)CC3)[C@H]2SC1(C)C [dihydrochloride of ester methylacetic of 6-{N,N-[3'-(γ-aminopropyl)-1',5'-pentileneformamidine]}-penicillanicacid] |  |  |  |  |  |  |  |  |  |  |  |  | levels of free acid in serum and organs relative to equivalent dose of corresponding free acid [4]: multiply higher
6 | CC1(C)S[C@@H]2[C@H](N=CN3CCCCCC3)C(=O)N2[C@H]1C(=O)O [6-/N,N-1', 6'-hexyleneformamidine/-penicillanic acid, reference compound] |  |  |  |  |  |  |  |  |  |  |  |  | level of free acid in blood serum ([1]; po, 5 min): 300 ng/mL; level of free acid in blood serum ([1]; po, 10 min): 900 ng/mL; level of free acid in blood serum ([1]; po, 0.25 h): 1700 ng/mL; level of free acid in blood serum ([1]; po, 0.5 h): 1800 ng/mL; level of free acid in blood serum ([1]; po, 0.75 h): 1900 ng/mL; level of free acid in blood serum ([1]; po, 1 h): 1900 ng/mL; level of free acid in blood serum ([1]; po, 2 h): 1600 ng/mL; level of free acid in blood serum ([1]; po, 3 h): 1300 ng/mL; level of free acid in blood serum ([1]; po, 4 h): 800 ng/mL; level of free acid in blood serum ([1]; po, 5 h): 600 ng/mL; level of free acid in blood serum ([1]; po, 6 h): 500 ng/mL
